Entries after “also recorded” stand apart in the source; their conditions may differ.

One assay concerns the target SARS-CoV-2 PL^pro (Severe acute respiratory syndrome coronavirus 2, UniProt P0DTD1). Description: biochemical.
A further assay concerns WNF protease. The following applies: cited from earlier work.
The test system of another assay is DENV protease. The settings on record: enzyme concentration 1 μM; cited from earlier work.

For orientation: IC50 means the midpoint of a concentration-inhibition curve. Turning to `Sc1ncc2[nH]cnc2n1` [2-MP, 2-mercaptopurine], at SARS-CoV-2 PL^pro, the “Effect of reducing agent on PLpro inhibition (in words)” value is given as “diminished; also recorded: significantly increases the IC50 values” and the IC50 amounted to 820 ± 600 nM.

As to `CCN(CC)C(=S)SSC(=S)N(CC)CC` [Antabuse], the “Effect of reducing agent on PLpro inhibition (in words)” value at SARS-CoV-2 PL^pro is given as “significantly increases the IC50 values”.

On to Aprotinin, for which the IC50 with WNF protease was 20 nM; in the assay with DENV protease, 65 nM.

Molecule `Sc1ncnc2nc[nH]c12` [6-MP, 6-mercaptopurine] displayed an IC50 at SARS-CoV-2 PL^pro of around 66000 nM.

The values above are taken from PMC8270262 (Molecules, 2021).
